Values of other authors, collected in US20080038403A1, “WEIGHT MANAGEMENT SYSTEM FOR OBESE ANIMALS” (MARS INCORPORATED, priority 2002, published 2008).

Assays:
[1] = dietary consumption
[2] = dietary consumption; remark: listed apart in the source

1,3-diacylglycerol
body weight [1]: decreases | regional fat deposition [1]: decreases | serum cholesterol levels [2]: lowers | serum triglyceride levels [2]: lowers
